The test deals with M^Pro (SARS-CoV-2 main protease) (Severe acute respiratory syndrome coronavirus 2, UniProt P0DTD1). As to the kind of experiment: fluorogenic peptide substrate cleavage, […] min preincubation. The class given is biochemical. To be noted: pH 7.6, 37 °C, 50 nM enzyme, 10 μM substrate.

Each structure is given as a SMILES string.

With `CCN(CC)CCCC(C)Nc1ccnc2cc(Cl)ccc12` (stereo not shown) [chloroquine], the “% activity retained at 16 μM” value is given as 84%.

The values above are taken from paper doi:10.1101/2021.06.08.447613v1 (biorxiv, 2021).
